What was measured:
[1] = molecular target: T1, Glucocorticoid receptor (Homo sapiens, UniProt P04150); test: Inhibition of Dexamethasone binding to human glucocorticoid receptor expressed in baculovirus […] cells
T1 sequence (P04150 whole entry): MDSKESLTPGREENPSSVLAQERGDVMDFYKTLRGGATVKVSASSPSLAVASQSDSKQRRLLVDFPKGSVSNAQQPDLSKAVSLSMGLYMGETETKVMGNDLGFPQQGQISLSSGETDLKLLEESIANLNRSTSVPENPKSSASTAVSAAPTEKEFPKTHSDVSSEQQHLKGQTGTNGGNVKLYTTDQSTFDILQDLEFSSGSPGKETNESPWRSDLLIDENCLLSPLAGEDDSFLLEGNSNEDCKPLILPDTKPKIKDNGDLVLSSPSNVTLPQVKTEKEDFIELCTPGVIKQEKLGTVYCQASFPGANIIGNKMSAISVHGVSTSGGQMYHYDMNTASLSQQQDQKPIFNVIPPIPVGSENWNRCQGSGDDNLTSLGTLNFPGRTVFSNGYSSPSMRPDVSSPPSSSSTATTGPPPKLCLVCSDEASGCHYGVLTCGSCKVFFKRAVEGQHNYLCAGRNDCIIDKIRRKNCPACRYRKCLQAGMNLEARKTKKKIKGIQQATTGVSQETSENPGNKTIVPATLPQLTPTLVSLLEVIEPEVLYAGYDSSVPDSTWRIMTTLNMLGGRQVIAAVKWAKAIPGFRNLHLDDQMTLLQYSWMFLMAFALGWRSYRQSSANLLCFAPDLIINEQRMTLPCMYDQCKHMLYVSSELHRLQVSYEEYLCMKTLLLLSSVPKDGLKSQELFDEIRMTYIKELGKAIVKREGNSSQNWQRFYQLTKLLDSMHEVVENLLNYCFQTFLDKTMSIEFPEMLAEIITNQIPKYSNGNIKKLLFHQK

[2] = molecular target: T2, Progesterone receptor (Homo sapiens, UniProt P06401); test: Agonistic activity against human progesterone receptor in CV-1 cells; format: functional, cell-based
T2 sequence (P06401 whole entry): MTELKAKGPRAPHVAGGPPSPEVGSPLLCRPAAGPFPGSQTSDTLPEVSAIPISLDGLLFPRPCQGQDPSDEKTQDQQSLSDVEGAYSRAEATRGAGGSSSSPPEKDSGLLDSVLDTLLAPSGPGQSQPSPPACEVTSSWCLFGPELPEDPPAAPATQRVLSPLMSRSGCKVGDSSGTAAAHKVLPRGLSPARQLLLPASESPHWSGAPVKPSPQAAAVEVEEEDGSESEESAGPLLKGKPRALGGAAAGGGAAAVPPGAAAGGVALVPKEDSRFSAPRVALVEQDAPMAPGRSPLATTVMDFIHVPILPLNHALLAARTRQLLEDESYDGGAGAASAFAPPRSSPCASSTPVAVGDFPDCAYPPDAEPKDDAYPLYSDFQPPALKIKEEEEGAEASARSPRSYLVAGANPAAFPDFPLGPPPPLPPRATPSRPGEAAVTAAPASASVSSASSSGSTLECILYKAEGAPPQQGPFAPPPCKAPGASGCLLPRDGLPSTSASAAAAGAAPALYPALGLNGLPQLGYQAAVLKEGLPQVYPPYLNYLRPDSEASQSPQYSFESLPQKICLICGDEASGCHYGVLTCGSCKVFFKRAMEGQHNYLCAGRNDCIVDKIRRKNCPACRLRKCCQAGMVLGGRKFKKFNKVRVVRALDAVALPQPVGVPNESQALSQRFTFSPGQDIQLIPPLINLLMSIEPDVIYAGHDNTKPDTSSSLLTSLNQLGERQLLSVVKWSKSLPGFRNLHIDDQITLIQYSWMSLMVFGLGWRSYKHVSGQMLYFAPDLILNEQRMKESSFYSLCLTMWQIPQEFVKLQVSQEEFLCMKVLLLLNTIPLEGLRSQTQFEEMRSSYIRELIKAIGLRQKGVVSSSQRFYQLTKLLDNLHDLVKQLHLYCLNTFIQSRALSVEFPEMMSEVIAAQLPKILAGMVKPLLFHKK

[3] = molecular target: T2, Progesterone receptor; test: Agonistic activity against human progesterone receptor in T47D breast cancer cells; format: functional, cell-based
[4] = molecular target: T3, Progesterone receptor (Homo sapiens) (UniProt P06401); test: Percent agonistic effect towards human progesterone receptor in CV-1 cells; format: functional, cell-based
T3 sequence (whole entry): T2 sequence (P06401 whole entry)

[5] = molecular target: T3, Progesterone receptor (Homo sapiens); test: Percent agonistic effect towards human progesterone receptor in T47D breast cancer cells; format: functional, cell-based
[6] = molecular target: T2, Progesterone receptor; test: Binding affinity towards human progesterone receptor A isoform using progesterone as radioligand
[7] = species: Homo sapiens; test: Relative potency for human estrogen and progesterone receptors
[8] = species: Homo sapiens; test: Relative potency for human mineralocorticoid and progesterone receptors
[9] = molecular target: T4, Androgen receptor (Homo sapiens, UniProt P10275)
T4 sequence (P10275 whole entry): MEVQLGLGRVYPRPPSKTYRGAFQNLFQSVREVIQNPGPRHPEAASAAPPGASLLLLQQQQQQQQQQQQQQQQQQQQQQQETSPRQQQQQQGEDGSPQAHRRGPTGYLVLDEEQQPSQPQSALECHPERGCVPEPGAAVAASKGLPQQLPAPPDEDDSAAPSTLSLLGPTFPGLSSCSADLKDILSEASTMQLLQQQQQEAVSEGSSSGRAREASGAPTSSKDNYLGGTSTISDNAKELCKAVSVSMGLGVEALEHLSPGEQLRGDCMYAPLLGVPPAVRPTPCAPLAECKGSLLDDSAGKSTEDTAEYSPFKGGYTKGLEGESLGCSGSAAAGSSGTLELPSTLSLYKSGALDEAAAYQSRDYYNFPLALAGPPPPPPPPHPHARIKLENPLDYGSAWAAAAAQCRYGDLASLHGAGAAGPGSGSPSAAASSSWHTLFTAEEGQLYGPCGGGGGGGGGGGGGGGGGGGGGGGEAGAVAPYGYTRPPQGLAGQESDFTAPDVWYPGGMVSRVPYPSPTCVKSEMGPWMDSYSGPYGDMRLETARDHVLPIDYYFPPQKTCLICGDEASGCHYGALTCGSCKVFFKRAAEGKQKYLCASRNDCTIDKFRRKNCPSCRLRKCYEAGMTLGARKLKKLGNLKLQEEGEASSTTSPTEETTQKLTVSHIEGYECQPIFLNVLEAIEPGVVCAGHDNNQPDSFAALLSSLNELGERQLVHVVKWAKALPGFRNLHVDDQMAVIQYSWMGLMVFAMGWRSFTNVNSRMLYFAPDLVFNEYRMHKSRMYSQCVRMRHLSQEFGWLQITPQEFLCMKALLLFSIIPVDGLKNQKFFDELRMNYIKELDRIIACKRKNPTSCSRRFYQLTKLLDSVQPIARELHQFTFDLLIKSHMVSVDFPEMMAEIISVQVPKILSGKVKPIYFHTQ
Description: Inhibition of human androgen receptor at 10e-12 to 10e-5 M

[10] = molecular target: T1, Glucocorticoid receptor
Description: Inhibition of human glucocorticoid receptor at 10e-12 to 10e-5 M

[11] = molecular target: T4, Androgen receptor; test: biochemical
Description: Inhibition of DHT binding to human androgen receptor expressed in baculovirus SF-12 cells

[12] = species: Homo sapiens; test: Relative potency for human androgen and progesterone receptors
[13] = species: Homo sapiens; test: Relative potency for human glucocorticoid and progesterone receptors

SMILES	Ki [1]	EC50 [2]	EC50 [3]	Efficacy [4]	Efficacy [5]	Ki [6]	Ratio [7]	Ratio [8]	IC50 [9]	IC50 [10]	Ki [11]	Ratio [12]	Ratio [13]
CC1=CC(C)(C)Nc2ccc3c(c21)/C(=C/c1ncccc1C)Oc1ccc(F)cc1-3	874 nM	4.5 nM	12 nM	125%	49%	0.42 nM	> 1000	> 1000	203 nM	188 nM	> 1000 nM		
CC1=CC(C)(C)Nc2ccc3c(c21)/C(=C/c1ccc(F)cc1)Oc1c(F)cccc1-3		4 nM	8 nM	175%	36%	0.71 nM							
CC1=CC(C)(C)Nc2ccc3c(c21)/C(=C/c1ccccc1F)Oc1ccc(F)cc1-3			29 nM	190%	47%	0.62 nM							
CC1=CC(C)(C)Nc2ccc3c(c21)/C(=C/c1cccc(F)c1)Oc1c(F)cccc1-3		2.7 nM	18 nM	170%	51%	5.5 nM							
CC1=CC(C)(C)Nc2ccc3c(c21)/C(=C/c1ccccc1Br)Oc1ccc(F)cc1-3		9 nM	50 nM	147%	37%	16.4 nM							
CC1=CC(C)(C)Nc2ccc3c(c21)/C(=C/c1ccccc1C#N)Oc1ccc(F)cc1-3		11 nM	97 nM	78%	62%	11.4 nM							
CC1=CC(C)(C)Nc2ccc3c(c21)/C(=C/c1ccccc1OC(F)(F)F)Oc1ccc(F)cc1-3		11 nM	190 nM	136%	56%	6.4 nM							
CC1=CC(C)(C)Nc2ccc3c(c21)/C(=C/c1ccccc1C(F)(F)F)Oc1ccc(F)cc1-3		14 nM	161 nM	127%	56%	45.5 nM							
CC1=CC(C)(C)Nc2ccc3c(c21)/C(=C/c1ccccc1N(C)C)Oc1ccc(F)cc1-3	493 nM	2.7 nM	26 nM	172%	59%	1.2 nM	> 1000	> 1000	1500 nM	320 nM	819 nM	556	119
CC1=CC(C)(C)Nc2ccc3c(c21)/C(=C/c1ccccn1)Oc1ccc(F)cc1-3		15 nM	44 nM	50%	40%	9.2 nM							
